# Source: ChEMBL document CHEMBL1146817, “Quinoxaline N,N'-dioxide derivatives and related compounds as growth inhibitors of Trypanosoma cruzi. Structure-activity relationships” (Bioorg Med Chem Lett, 2004)
# The source made the active and inactive calls. The calls are words filed in the database; no cut-off is given here.
# What was measured:
# Assay type in all cases: functional
# [1] = biological target: T1, Glutathione reductase, mitochondrial (Homo sapiens) (UniProt P00390); assay: In vitro inhibition against human glutathione reductase; IA denotes inactive
# T1 sequence (whole entry): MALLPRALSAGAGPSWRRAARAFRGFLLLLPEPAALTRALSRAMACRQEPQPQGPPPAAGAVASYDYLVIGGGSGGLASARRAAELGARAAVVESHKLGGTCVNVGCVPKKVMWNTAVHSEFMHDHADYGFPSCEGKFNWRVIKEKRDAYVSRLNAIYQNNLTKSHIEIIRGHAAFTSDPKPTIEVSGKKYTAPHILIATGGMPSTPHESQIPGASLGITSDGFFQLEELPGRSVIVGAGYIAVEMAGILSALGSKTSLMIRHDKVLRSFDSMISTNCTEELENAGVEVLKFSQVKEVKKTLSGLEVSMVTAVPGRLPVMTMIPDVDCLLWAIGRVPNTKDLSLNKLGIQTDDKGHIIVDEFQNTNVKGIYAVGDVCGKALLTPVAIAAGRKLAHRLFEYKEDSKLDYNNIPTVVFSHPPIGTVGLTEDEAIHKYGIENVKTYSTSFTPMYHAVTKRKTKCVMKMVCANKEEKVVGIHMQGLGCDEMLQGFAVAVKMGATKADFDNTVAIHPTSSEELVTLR
# Trypanosoma cruzi [2] = assay: In vitro percent inhibition of growth against epimastigote form of Trypanosoma cruzi (Tulahuen strain) at 25 uM
# Trypanosoma cruzi [3] = assay: In vitro inhibitory dose against epimastigote form of Trypanosoma cruzi Tulahuen strain; conditions: read-out: ID50 (the source's name)
# Trypanosoma cruzi [4] = assay: In vitro inhibitory dose against epimastigote form of Trypanosoma cruzi Brener strain; conditions: read-out: ID50 (the source's name)
SMILES,PGI (Trypanosoma cruzi [2]),further results
CCN(CC)CCCC(C)Nc1c2ccc(Cl)cc2nc2ccc(OC)cc12 (stereo not drawn),,inhibition [1]: inactive
COc1ccc2c(c1)[n+]([O-])c1cc(C#N)c(N)cc1[n+]2[O-],25%,
CC(=O)c1cc2c(cc1C)[n+]([O-])c1cc(F)ccc1[n+]2[O-],22%,
COc1ccc2c(c1)[n+]([O-])c1cc(C#N)c(N3CCN(c4ccc([N+](=O)[O-])cc4)CC3)cc1[n+]2[O-],19%,
N#Cc1cc2c(cc1N)[n+]([O-])c1ccccc1[n+]2[O-],25%,
Cc1cc2c(cc1C)[n+]([O-])c1cc(/C=N/NC(=O)NCCc3ccccc3)ccc1[n+]2[O-],17%,
Cc1cc2c(cc1C(=O)c1ccccc1)[n+]([O-])c1cc(Cl)c(Cl)cc1[n+]2[O-],91%,IC50 (Trypanosoma cruzi [3]): 11.8 µM; IC50 (Trypanosoma cruzi [4]): 12.5 µM
Cc1cc2c(cc1C)[n+]([O-])c1cc(N3CCN(c4ccc([N+](=O)[O-])cc4)CC3)c(C#N)cc1[n+]2[O-],0%,
COC(=O)N/N=C/c1ccc2c(c1)[n+]([O-])c1cc(C#N)c(N)cc1[n+]2[O-],19%,
COc1ccc2[nH]c3nnc(N)c-3nc2c1,0%,
c1ccc(CNc2nc(NCc3ccccc3)c3nc4ccccc4nc3n2)cc1,31%,
COCCNC(=O)N/N=C/c1ccc2c(c1)[n+]([O-])c1cc(C#N)c(N)cc1[n+]2[O-],20%,
COc1ccccc1N1CCN(c2cc3c(cc2C#N)[n+]([O-])c2cc(Cl)ccc2[n+]3[O-])CC1,100%,IC50 (Trypanosoma cruzi [3]): 6.5 µM; IC50 (Trypanosoma cruzi [4]): 9.5 µM
COC(=O)N/N=C/c1ccc2c(c1)[n+]([O-])c1cc(C)c(C)cc1[n+]2[O-],28%,
Cc1cc2c(cc1C(=O)N1CCN(c3ccccc3)CC1)[n+]([O-])c1cc(Cl)c(Cl)cc1[n+]2[O-],47%,
Cc1cc2c(cc1C)[n+]([O-])c1cc(C(=O)N3CCN(c4ccccc4)CC3)c(C)cc1[n+]2[O-],0%,
CC(=O)c1cc2c(cc1C)[n+]([O-])c1cc(Cl)ccc1[n+]2[O-],51%,
Nc1nc(N)c2nc3ccccc3nc2n1,0%,

SMILES,PGI (Trypanosoma cruzi [2]),further results
Cc1cc2c(cc1C)[n+]([O-])c1cc(NCCCN(C)C)c(C#N)cc1[n+]2[O-],1%,
N#Cc1cc2c(cc1Nc1ccccc1)[n+]([O-])c1ccc(Cl)cc1[n+]2[O-],63%,
N#Cc1cc2c(cc1N1CCN(Cc3ccc4c(c3)OCO4)CC1)[n+]([O-])c1ccc(Cl)cc1[n+]2[O-],33%,
CN(C)CCCNc1cc2c(cc1C#N)[n+]([O-])c1cc(Cl)ccc1[n+]2[O-],16%,
N#Cc1cc2c(cc1N)[n+]([O-])c1cc(Cl)c(Cl)cc1[n+]2[O-],25%,
N#Cc1cc2c(cc1N1CCN(c3ccc([N+](=O)[O-])cc3)CC1)[n+]([O-])c1ccc(Cl)cc1[n+]2[O-],3%,
Cc1cc2c(cc1C)[n+]([O-])c1cc(C(=O)N3CCN(c4ccc([N+](=O)[O-])cc4)CC3)c(C)cc1[n+]2[O-],1%,
Cc1cc2nc3cc(Cl)c(C#N)cc3nc2cc1C,81%,IC50 (Trypanosoma cruzi [3]): 19.6 µM; IC50 (Trypanosoma cruzi [4]): 3 µM
N#Cc1cc2nc3cc(Cl)ccc3nc2cc1Cl,100%,IC50 (Trypanosoma cruzi [3]): 4.5 µM; IC50 (Trypanosoma cruzi [4]): 3 µM
N#Cc1cc2c(cc1N)[n+]([O-])c1ccc(/C=N/NC(=O)NCCc3ccccc3)cc1[n+]2[O-],11%,
Cc1ccc2c(c1)[n+]([O-])c1cc(C#N)c(N)cc1[n+]2[O-],5%,
Cc1ccc(Nc2cc3c(cc2C#N)[n+]([O-])c2cc(Cl)ccc2[n+]3[O-])cc1,19%,
COc1cc2c(cc1Cl)[n+]([O-])c1cc(N3CCN(c4ccc([N+](=O)[O-])cc4)CC3)c(C#N)cc1[n+]2[O-],6%,
Cc1cc2c(cc1Sc1ccccc1)[n+]([O-])c1cc(Cl)c(Cl)cc1[n+]2[O-],93%,IC50 (Trypanosoma cruzi [3]): 6.5 µM; IC50 (Trypanosoma cruzi [4]): 4.5 µM
N#Cc1cc2c(cc1N1CCN(c3cccc(C(F)(F)F)c3)CC1)[n+]([O-])c1ccc(Cl)cc1[n+]2[O-],94%,IC50 (Trypanosoma cruzi [3]): 6.7 µM; IC50 (Trypanosoma cruzi [4]): 7 µM
CC1CS(=O)(=O)CCN1/N=C/c1ccc([N+](=O)[O-])o1 (stereo not drawn) [NIFURTIMOX],,IC50 (Trypanosoma cruzi [3]): 7.7 µM; IC50 (Trypanosoma cruzi [4]): 3.4 µM
Cc1ccc2nc3cc(N)c(C#N)cc3nc2c1,0%,
